The values below come from publication PMC10771590, “Pathway crosstalk between the central metabolic and heme biosynthetic pathways in Phanerochaete chrysosporium” (Applied Microbiology and Biotechnology, 2024).

One data set relates to CS from rat kidney. The arrangement: method as in Matsuoka and Srere 1973; Lee et al. 1997. Conditions: ref Matsuoka and Srere 1973; Lee et al. 1997; cited from earlier work.
Data set [1] relates to CS from Drosophila melanogaster. Set-up: method as in Matsuoka and Srere 1973; Lee et al. 1997. The note with it: ref Matsuoka and Srere 1973; Lee et al. 1997; cited from earlier work.
For data set [2], the target named is T1, recombinant PcGAPDH (rPcGAPDH) (Phanerodontia chrysosporium, UniProt Q01982).
T1 construct: 6xHis-tag (pET-30) (cleaved yes); made in house; host or cells: E. coli BL21(DE3)pLysS
T1 sequence (Q01982 whole entry): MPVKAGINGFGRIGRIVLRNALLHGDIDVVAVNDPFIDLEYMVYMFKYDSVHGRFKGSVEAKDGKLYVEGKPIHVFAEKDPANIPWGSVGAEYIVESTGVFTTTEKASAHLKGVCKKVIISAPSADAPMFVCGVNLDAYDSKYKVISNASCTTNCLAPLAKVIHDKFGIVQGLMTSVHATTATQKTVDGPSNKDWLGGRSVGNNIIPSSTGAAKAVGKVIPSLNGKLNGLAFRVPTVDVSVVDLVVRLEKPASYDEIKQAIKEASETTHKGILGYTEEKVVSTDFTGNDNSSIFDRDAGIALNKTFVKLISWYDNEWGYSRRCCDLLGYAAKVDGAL
Put plainly: GAPDH assay and steady-state kinetic analysis. Format: biochemical, Phanerochaete chrysosporium. Conditions: 1 μM inhibitor, 5-min incubation, 0.6 mM GAP3 (Fig. 2C). The protocol: GAPDH assay was performed as previously described (Campanale et al. [2003]). For steady-state kinetic analysis, the reaction mixture (1 ml) contained 40 mM phosphate (pH 7.6), 5.2 μg recombinant PcGAPDH (rPcGAPDH), 40 mM triethanolamine, 5 mM NAD^+, and 0.6–2 mM glyceraldehyde 3-phosphate (GAP3). Reactions were monitored by the increase in absorbance at 340 nm (ε 6220 M^–1 cm^–1) for 1 min, and initial velocities were determined. Inhibitory experiments were done in the presence of 0–2.5 μM hemin. To examine the effect of hemin on GAPDH kinetics, PcGAPDH was incubated with either buffer (control) or hemin for 5 min prior to initiating the reaction. Kinetic parameters were determined from Lineweaver–Burk plots, and Ki values were determined from the secondary plot of each slope of the Lineweaver–Burk plots. Immediately prior to use, hemin was dissolved at 10 mM in 0.1 M NaOH and diluted with 40 mM Tris–HCl (pH 7.5).
Fig. 2 Heterologous expression of PcGAPDH and inhibitory effect of hemin on GAPDH reaction. A M, molecular weight marker; lane 1, rPcGAPDH-His-tag; lane 2, His-tag-cleaved rPcGAPDH. B Reaction mixtures containing 2.5 nM rPcGAPDH, 40 mM phosphate (pH 7.6), 40 mM triethanolamine, 5 mM NAD^+, and 0.6–2 mM GAP3. […] Inset: secondary plots of each slope of Lineweaver–Burk plots against the concentration of hemin for determining inhibition constants. C Reaction mixtures containing 2.5 nM rPcGAPDH, 40 mM phosphate (pH 7.6), 40 mM triethanolamine, 5 mM NAD^+, and 0.6 mM GAP3. Reactions were started by adding substrates followed by 5-min incubation with either buffer or 1 μM inhibitor (hemin or protoporphyrin IX, PPIX). […] All experiments were performed in triplicate. Bars indicated as mean values ± standard deviation (error bars)

Data set [3] addresses T2, rPcCS (mitochondrial citrate synthase) (Phanerodontia chrysosporium, UniProt Q0EAA7).
T2 sequence (Q0EAA7 1-446): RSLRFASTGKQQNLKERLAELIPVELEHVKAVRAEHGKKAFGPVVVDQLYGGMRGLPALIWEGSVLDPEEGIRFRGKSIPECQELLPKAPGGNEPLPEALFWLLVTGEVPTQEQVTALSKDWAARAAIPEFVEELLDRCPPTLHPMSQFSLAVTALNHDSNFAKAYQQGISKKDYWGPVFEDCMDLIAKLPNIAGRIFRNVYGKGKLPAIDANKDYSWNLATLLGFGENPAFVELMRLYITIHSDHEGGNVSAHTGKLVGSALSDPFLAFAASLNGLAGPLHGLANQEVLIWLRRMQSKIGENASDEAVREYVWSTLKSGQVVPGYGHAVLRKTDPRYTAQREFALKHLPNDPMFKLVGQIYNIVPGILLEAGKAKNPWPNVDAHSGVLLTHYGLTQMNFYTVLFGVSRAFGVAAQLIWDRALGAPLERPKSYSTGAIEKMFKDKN
Description: CS assay (DTNB method) and steady-state kinetic analysis. The note with it: at a concentration more than 10 times the inhibitory concentration of hemin (data not shown). The data set is classed as biochemical, Phanerochaete chrysosporium. As to the method:
CS was assayed by the 5, 5′-dithiobis-2-nitrobenzoic acid (DTNB) method, as described previously (Srere et al. [1963]). […] CS catalyzes the reaction of OAA with AcCoA, generating citrate and CoA. Thus, reactions were monitored by the amount of released CoA, which was followed at 412 nm (ε 13 600 M^–1cm^–1) by the formation of 2-nitro-5-mercaptobenzoic acid, via the reaction of CoA with DTNB. Reactions were monitored for 1 min, and initial velocity was determined. […] Inhibition studies were carried out in the presence of 0–2.5 μM hemin as described above. Kinetic parameters were determined from Lineweaver–Burk plots, and Ki values were determined from the secondary plot of the slopes of the Lineweaver–Burk plots. Hemin and OAA solutions were prepared immediately prior to use.
Fig. 5 Inhibitory effect of hemin on PcCS reaction. […] Reaction mixtures contained 1.5 nM rPcCS, 40 mM Tris-HCl (pH 8.5), and 120 μM DTNB. Fixed substrate was added at 12 μM and variable substrate at 3–12 μM. […] Insets: secondary plots of each slope of Lineweaver–Burk plots against the concentration of hemin for determining inhibition constants.

Substrate in data set [4]: O=C(O)CC(=O)C(=O)O
Description: purified protein, by the assay type. The note with it: other: rPcCS, substrate OAA; pH 8.5.

Substrate in data set [5]: CC(=O)SCCNC(=O)CCNC(=O)[C@H](O)C(C)(C)COP(=O)(O)OP(=O)(O)OC[C@H]1O[C@@H](n2cnc3c(N)ncnc32)[C@H](O)[C@@H]1OP(=O)(O)O
Description: purified protein, by the assay type. The note with it: other: rPcCS, substrate AcCoA; pH 8.5.

For the molecule `CCC(=O)SCCNC(=O)CCNC(=O)[C@H](O)C(C)(C)COP(=O)(O)OP(=O)(O)OC[C@H]1O[C@@H](n2cnc3c(N)ncnc32)[C@H](O)[C@@H]1OP(=O)(O)O` [propionyl-CoA], the mode of inhibition entry in the data set with CS from rat kidney was “competitive inhibitors of AcCoA and as non-competitive inhibitors of OAA”; in data set [1], “competitive inhibitors of AcCoA and as non-competitive inhibitors of OAA”.

In the case of `C=CC1=C(C)c2cc3[nH]c(cc4nc(cc5[nH]c(cc1n2)c(C)c5CCC(=O)O)C(CCC(=O)O)=C4C)c(C)c3C=C` [protoporphyrin IX], in data set [2], the “inhibition of PcGAPDH activity” value is “as effectively as by hemin”. Moreover, in data set [3], the “inhibition of PcCS” value was “slightly inhibited”.

For `CC(C)(COP(=O)(O)OP(=O)(O)OC[C@H]1O[C@@H](n2cnc3c(N)ncnc32)[C@H](O)[C@@H]1OP(=O)(O)O)[C@@H](O)C(=O)NCCC(=O)NCCS` [CoA, coenzyme A], the mode of inhibition result in the data set on CS from rat kidney was “competitive inhibitors of AcCoA and as non-competitive inhibitors of OAA”; in data set [1], “competitive inhibitors of AcCoA and as non-competitive inhibitors of OAA”.

B1: rPcCS (mitochondrial citrate synthase) (Phanerodontia chrysosporium) (protein)
chain: T2 sequence (Q0EAA7 1-446)
By Km is commonly meant the substrate concentration at which the rate is half of its maximum. Broadly, the Vmax is the top rate of the reaction or transport when substrate is in excess. For the molecule B1, in data set [4], the Km was determined as 6.2 µM and the maximal velocity (Vmax) was 31.4 nmol/min/mL. Also, in data set [5], the Michaelis constant (Km) amounted to 4.2 µM and the Vmax stood at 25.8 nmol/min/mL.
